The source of these data is US20160010068A1, “FUSION POLYNUCLEOTIDES AND FUSION POLYPEPTIDES ASSOCIATED WITH CANCER AND PARTICULARLY MELANOMA AND THEIR USES AS THERAPEUTIC AND DIAGNOSTIC TARGETS” (priority 2013, published 2016).

In series [1] the target is T1, PWWP2A-ROS1 fusion (Homo sapiens, UniProt P08922).
T1 construct: exon 1 of PWWP2A is fused with exon 36-43 of ROS1, which contains the tyrosine kinase domain; expressed in transfected cells; host or cells: melan-a cells (immortalized, non-tumorigenic mouse melanocytes), stably transduced with lentivirus (pLenti6.3/TO/V5-Dest)
Nature of the series: Western blot of phosphorylation in melan-a cells expressing PWWP2A-ROS1 fusion construct. The class given is cell-based, mouse. To be noted: FIG. 3d. Background: A western blot detects proteins with antibodies after separation by electrophoresis.

Series [2] deals with T1, PWWP2A-ROS1 fusion. Put plainly: Western blot of signaling in melan-a cells expressing the PWWP2A-ROS1 fusion, with crizotinib. The format is cell-based. Conditions: representative of three independent experiments. The source says: FIG. 3 depicts ROS1 fusions. […] Scale bar, […]. Scale bar magnification, 50 mm. […] Scale bar, […]. Scale bar magnification, 50 mm. […] Scale bar, 10 mm. (c) Illustration of the PWWP2A-ROS1 kinase fusion. ROS1 is located on […], and PWWP2A on chromosome 5q33. Owing to genomic rearrangements, exon 1 of PWWP2A is fused with exon 36-43 of ROS1, which contains the tyrosine kinase domain. […] The indicated protein weight markers in kDa are estimated from molecular weight standards.
FIG. 8 depicts full western blots of FIG. 3d. (a) p-ROS1, (b) t-ROS1, (c) p-AKT, (d) t-AKT, (e) p-ERK, (f) t-ERK, (g) p-S6, (h) t-S6, (i) p-SHP2, (j) t-SHP2, (k) Hsp60. All molecular weight standards are indicated in kDa.

A further series relates to melanoma. Conditions: twice daily; phase I trial; cited from earlier work.

T1 sequence (P08922 with tags, fused parts or gaps): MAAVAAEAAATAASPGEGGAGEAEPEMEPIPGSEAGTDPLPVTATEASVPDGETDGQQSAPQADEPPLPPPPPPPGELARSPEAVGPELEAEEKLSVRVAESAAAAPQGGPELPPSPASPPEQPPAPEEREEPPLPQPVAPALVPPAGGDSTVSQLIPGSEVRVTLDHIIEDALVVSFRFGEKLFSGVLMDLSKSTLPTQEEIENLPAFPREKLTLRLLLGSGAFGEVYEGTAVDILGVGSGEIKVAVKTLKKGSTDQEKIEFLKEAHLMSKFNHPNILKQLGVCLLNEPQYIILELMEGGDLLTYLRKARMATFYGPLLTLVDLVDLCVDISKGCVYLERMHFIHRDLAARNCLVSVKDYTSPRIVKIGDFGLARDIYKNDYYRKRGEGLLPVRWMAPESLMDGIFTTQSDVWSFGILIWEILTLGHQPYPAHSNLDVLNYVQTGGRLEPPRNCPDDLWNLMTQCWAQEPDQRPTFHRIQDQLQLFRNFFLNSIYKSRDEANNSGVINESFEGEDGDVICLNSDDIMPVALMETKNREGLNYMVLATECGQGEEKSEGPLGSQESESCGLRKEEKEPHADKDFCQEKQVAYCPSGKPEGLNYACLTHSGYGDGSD

Turning to `C[C@@H](Oc1cc(-c2cnn(C3CCNCC3)c2)cnc1N)c1c(Cl)ccc(F)c1Cl` [Crizotinib, crizotinib], at PWWP2A-ROS1 fusion [1], the “phosphorylation of ERK” value is “not”; the “phosphorylation of PWWP2A-ROS1, AKT, S6 and SHP2” value is listed as “at least partially inhibited”. At PWWP2A-ROS1 fusion [2], the p-AKT entry is “inhibited at least partially”, the p-S6 result is “inhibited at least partially”, the p-SHP2 entry is on record as “inhibited at least partially” and the “phosphorylation of the chimeric PWWP2A-ROS1 fusion protein” value is reported as “inhibited at least partially”.
For the compound `CCCS(=O)(=O)Nc1ccc(F)c(C(=O)c2c[nH]c3ncc(-c4ccc(Cl)cc4)cc23)c1F` [vemurafenib], the maximum tolerated dose in the series on melanoma is 60 mg.
